Assay results reported in ChEMBL document CHEMBL1201862, “PubChem BioAssay data set” (2004).
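Grown in 96-well plates, cells were treated for 48 hours with each compound at five concentrations. Insufficient inhibition: endpoint recorded as highest concentration tested. GI50 marks 50% less growth.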 Activity calls are given as the source filed them. No stated cut-off is given here; in the data, active = GI50 up to about 1.1 µM and inactive = higher.

How the values were obtained:
Experiment in all cases: NCI-60 cell line screen, 48 h
DU-145 = system: DU-145
A549 = system: A549
SK-MEL-2 = system: SK-MEL-2
HCT-116 = system: HCT-116
OVCAR-8 = system: OVCAR-8
MDA-MB-435 = system: MDA-MB-435
COLO 205 = system: COLO 205
UACC-257 = system: UACC-257
SR = system: SR
OVCAR-5 = system: OVCAR-5
UACC-62 = system: UACC-62
LOX IMVI = system: LOX IMVI
SK-MEL-5 = system: SK-MEL-5
MCF7 = system: MCF7
MOLT-4 = system: MOLT-4
NCI/ADR-RES = system: NCI/ADR-RES
OVCAR-4 = system: OVCAR-4
RPMI-8226 = system: RPMI-8226
HCC 2998 = system: HCC 2998
CAKI-1 = system: CAKI-1

Measured: GI50

CCCCc1ccc(Nc2nc(O)c3ncn(COCCO)c3n2)cc1
inactive: DU-145 > 100 µM | A549 > 100 µM | SK-MEL-2 > 100 µM | HCT-116 > 100 µM | OVCAR-8 > 100 µM | MDA-MB-435 > 100 µM | COLO 205 > 100 µM | UACC-257 > 100 µM | SR 88.3 µM | OVCAR-5 > 100 µM | UACC-62 > 100 µM | LOX IMVI > 100 µM | SK-MEL-5 > 100 µM | MCF7 > 100 µM | MOLT-4 56 µM | NCI/ADR-RES > 100 µM | OVCAR-4 > 100 µM | RPMI-8226 43.9 µM | HCC 2998 > 100 µM

CCC1(O)CC2CC(=O)OC2C1O (centres undefined)
inactive: DU-145 > 100 µM | A549 > 100 µM | SK-MEL-2 > 100 µM | OVCAR-8 > 100 µM | CAKI-1 > 100 µM | MDA-MB-435 > 100 µM | COLO 205 > 100 µM | UACC-257 > 100 µM | SR > 100 µM | OVCAR-5 > 100 µM | UACC-62 > 100 µM | LOX IMVI > 100 µM | SK-MEL-5 > 100 µM | MCF7 > 100 µM | MOLT-4 > 100 µM | NCI/ADR-RES > 100 µM | OVCAR-4 > 100 µM | RPMI-8226 > 100 µM | HCC 2998 > 100 µM

Oc1ccc(Cl)cc1C1=NC(NCN2CCN(CNC3=NC(c4ccccc4)CC(c4cc(Cl)ccc4O)=N3)CC2)=NC(c2ccccc2)C1 (centres undefined)
inactive: DU-145 41.8 µM | A549 36.1 µM | SK-MEL-2 43 µM | HCT-116 20.4 µM | OVCAR-8 31.8 µM | CAKI-1 29.5 µM | MDA-MB-435 48.6 µM | COLO 205 47.4 µM | UACC-257 > 100 µM | SR 28 µM | OVCAR-5 50.9 µM | UACC-62 45 µM | LOX IMVI 40.6 µM | SK-MEL-5 93.5 µM | MCF7 9.08 µM | NCI/ADR-RES 38.4 µM | OVCAR-4 28.9 µM | RPMI-8226 18.4 µM | HCC 2998 52.6 µM

CC#CCOC(=O)c1ccccc1OC(C)=O
inactive: DU-145 > 100 µM | SK-MEL-2 > 100 µM | HCT-116 > 100 µM | OVCAR-8 > 100 µM | CAKI-1 > 100 µM | MDA-MB-435 > 100 µM | COLO 205 > 100 µM | UACC-257 > 100 µM | SR > 100 µM | OVCAR-5 > 100 µM | UACC-62 > 100 µM | LOX IMVI > 100 µM | SK-MEL-5 > 100 µM | MCF7 > 100 µM | MOLT-4 > 100 µM | NCI/ADR-RES > 100 µM | OVCAR-4 > 100 µM | RPMI-8226 > 100 µM | HCC 2998 > 100 µM

O=C1CSC(c2ccc([N+](=O)[O-])cc2)N1c1nc(-c2ccc3c(c2)CCCC3)cs1 (centres undefined)
inactive: DU-145 > 100 µM | SK-MEL-2 39.5 µM | HCT-116 > 100 µM | OVCAR-8 > 100 µM | CAKI-1 > 100 µM | MDA-MB-435 33.4 µM | COLO 205 > 100 µM | UACC-257 > 100 µM | SR > 100 µM | OVCAR-5 > 100 µM | UACC-62 63.1 µM | LOX IMVI 25.1 µM | SK-MEL-5 51.1 µM | MCF7 31.7 µM | MOLT-4 > 100 µM | NCI/ADR-RES > 100 µM | OVCAR-4 > 100 µM | RPMI-8226 > 100 µM | HCC 2998 > 100 µM

CCN(CC)C(=S)Nc1ccc(-c2cc3ccc(O)cc3oc2=O)cc1
inactive: DU-145 29.8 µM | A549 44.9 µM | SK-MEL-2 20.3 µM | HCT-116 26.1 µM | OVCAR-8 26.9 µM | CAKI-1 31.2 µM | MDA-MB-435 28.6 µM | COLO 205 29.4 µM | UACC-257 22 µM | SR 14.5 µM | OVCAR-5 26.2 µM | UACC-62 32.4 µM | LOX IMVI 25.9 µM | SK-MEL-5 22.3 µM | MCF7 > 10 µM | MOLT-4 13.4 µM | NCI/ADR-RES 20.6 µM | RPMI-8226 21.6 µM | HCC 2998 20.2 µM

CC1OC(OC2C(O)COC(OC3C(C)OC(OC4C(OC(=O)[C@]56CCC(C)(C)C[C@@H]5C5=CCC7[C@@]8(C)C[C@H](O)[C@H](OC9OC(CO)C(O)C(O)C9O)[C@@](C)(CO)[C@@H]8CC[C@@]7(C)[C@]5(C)CC6)OCC(O)C4O)C(O)C3O)C2O)C(O)C(O)C1O (some centres undefined)
inactive: DU-145 19.1 µM | A549 20.8 µM | HCT-116 25.8 µM | OVCAR-8 18.8 µM | CAKI-1 12.5 µM | MDA-MB-435 23.4 µM | COLO 205 14.9 µM | UACC-257 17.5 µM | SR 21 µM | OVCAR-5 17.1 µM | UACC-62 20.8 µM | LOX IMVI 21.3 µM | SK-MEL-5 20.4 µM | MCF7 30.9 µM | MOLT-4 19 µM | NCI/ADR-RES 21.6 µM | OVCAR-4 20.8 µM | RPMI-8226 33.2 µM | HCC 2998 18.5 µM

CCOC(=O)C1=CCOc2cc(N(C)C)ccc21
inactive: DU-145 > 100 µM | A549 > 100 µM | SK-MEL-2 75 µM | HCT-116 > 100 µM | OVCAR-8 > 100 µM | CAKI-1 > 100 µM | MDA-MB-435 > 100 µM | COLO 205 > 100 µM | UACC-257 > 100 µM | SR 65.9 µM | UACC-62 > 100 µM | LOX IMVI > 100 µM | SK-MEL-5 > 100 µM | MCF7 > 100 µM | NCI/ADR-RES > 100 µM | RPMI-8226 > 100 µM | HCC 2998 > 100 µM

[N-]=[N+]=Nc1cc(=O)n2c3c(cccc13)CCC2
inactive: DU-145 > 100 µM | A549 > 100 µM | HCT-116 > 100 µM | OVCAR-8 > 100 µM | MDA-MB-435 > 100 µM | COLO 205 > 100 µM | UACC-257 > 100 µM | SR > 100 µM | UACC-62 > 100 µM | LOX IMVI > 100 µM | MCF7 > 100 µM | MOLT-4 > 100 µM | NCI/ADR-RES > 100 µM | OVCAR-4 > 100 µM | RPMI-8226 > 100 µM | HCC 2998 > 100 µM

C=C(C)CNC(=S)N(N)c1ccc(OC)cc1
inactive: DU-145 > 100 µM | A549 > 100 µM | HCT-116 > 100 µM | OVCAR-8 > 100 µM | MDA-MB-435 54.8 µM | COLO 205 > 100 µM | UACC-257 > 100 µM | SR > 100 µM | OVCAR-5 > 100 µM | UACC-62 24.2 µM | LOX IMVI > 100 µM | SK-MEL-5 > 100 µM | MCF7 > 100 µM | MOLT-4 96.6 µM | NCI/ADR-RES > 100 µM | OVCAR-4 > 100 µM | RPMI-8226 > 100 µM | HCC 2998 > 100 µM
